Earlier results, collected in patent publication US7662811B2, “1,2,3,4-tetrahydropyrazin-2-yl acetamides and methods of use” (Amgen Inc., priority 2004, dated 2010).
No end group written: not given here.

RPPGFSPFR [BK]
half-life of BK in plasma: approximately 17 seconds
